In the assay the test system is human iPSC-derived retinal organoids exposed to CSE. In words: TUNEL staining of retinal organoid sections. Format: cell-based. The note with it: Figure 8f; CSE + peptide; individual values, n=5. As for the experimental part: Human iPSCs were differentiated into retinal organoids (ROs) following the protocol by Zhong et al.[41]. Briefly, on Day 0, hiPSC colonies were dissociated with dispase and grown in a suspension to form embryoid bodies, and slowly transitioned to neural induction media (DMEM/F12 (1:1), 1% N2 supplement (Invitrogen), 1 x minimum essential media-nonessential amino acids (NEAAs), 2 µg/ml heparin (Sigma)). On Day 7, EBs were seeded on Matrigel coated plates and maintained in neural induction media. On Day 16, the media was switched to the retinal differentiation medium (DMEM/F12 (3:1), 2% B27 (without vitamin A, Invitrogen), 1x NEAA and 1% antibiotic–antimycotic (Gibco)). Retinal domains were identified and lifted manually with tungsten needles between Day 21 and Day 26 under a phase contrast microscope. On day 30, the culture medium was transitioned to DMEM/F12 (3:1) with 2% B27, 1x NEAA, 1% antibiotic–antimycotic, 10% fetal bovine serum (FBS; Gibco), […] Taurine (Sigma), and 2 mM GlutaMAX (Invitrogen). Additionally, 1 µM retinoic acid supplement was introduced daily starting from day 63. On day 91, the medium was modified to DMEM/F12 (1:1) supplemented with 1% N2, 1 x NEAAs, 1% antibiotic–antimycotic, 10% FBS, […] Taurine and 2 mM GlutaMAX, and the concentration of retinoic acid supplementation was reduced to 0.5 µM for the remainder of the culture period. The use of hiPSCs in this study conforms to the University of Colorado Institutional Biosafety Committee standards. […]
D180 ROs were treated with each of the 5 experimental conditions, as described above (n = 5 for each condition), washed with PBS three times, and fixed with 4% paraformaldehyde for 10 min at room temperature. […] Fluorescence images were acquired with a Nikon C2 Confocal Microscope A1 (Minato City, Tokyo, Japan) and stitched together using Nikon Elements Software. Images were analysed with Fiji. The relative area of positive immunostaining was calculated as a percentage of total retinal area. […]

Where “and” joins values, the source holds several entries; their conditions need not be identical. Identical values can stand only once. Where a SMILES comes first, the peptide text is derived from it.

Consider `CC[C@H](C)[C@H](NC(=O)[C@H](CC(C)C)NC(=O)[C@H](CC(=O)O)NC(=O)[C@H](Cc1ccc(O)cc1)NC(=O)[C@H](Cc1ccc(O)cc1)NC(=O)[C@H](CC(C)C)NC(=O)[C@H](C)NC(=O)[C@H](CCCNC(=N)N)NC(=O)[C@H](Cc1c[nH]cn1)NC(=O)[C@@H](NC(=O)[C@@H](NC(=O)[C@H](CO)NC(=O)[C@H](CCC(=O)O)NC(=O)[C@@H](NC(=O)[C@H](C)NC(=O)[C@@H](N)CCC(N)=O)[C@@H](C)O)[C@@H](C)CC)[C@@H](C)CC)C(=O)N[C@@H](CO)C(=O)O` [R99A] (H-QATESIIHRALYYDLIS-OH), for which the “Relative TUNEL(+) area” value was 4.87 and 4.90 and 3.81 and 6.35 and 6.42.

Source of the values: article PMC11928584, “H105A peptide eye drops promote photoreceptor survival in murine and human models of retinal degeneration” (Communications Medicine, 2025).
